{"source": "patent US20060246131A1", "about": "“Use of metformin to counteract weight gain associated with psychotropic medications” (priority 2005, published 2006)", "key": {"[1]": {"details": "cited from earlier work"}, "[2]": {"experiment": "Case study: mood and behavior of a patient with Bipolar Affective Disorder NOS on aripiprazole", "assay_type": "in vivo, human", "details": "person, BPAD NOS; aripiprazole 5 mg once daily; 2 weeks later", "text": "A person presented with behavioral problems.\nThe time of onset for childhood BPAD is frequently during the later years of the latency period, and typically includes rapid cycling, with disturbances in sleep, behavioral issues including aggression, grandiosity, and hyper-sexuality. At the time of evaluation, it was difficult to know if the patient also had co-occurring ADHD, combined subtype and Oppositional Defiant Disorder. Bipolar Affective Disorder, NOS appeared to be the more parsimonious diagnosis.\nAdditionally they were asked to keep a mood chart."}, "[3]": {"details": "metformin 500 mg twice daily together with aripiprazole, over a 3-month period"}, "[4]": {"details": "person treated with GEODON; cited from earlier work"}}, "data": [{"smiles": "CN(C)C(=N)NC(=N)N.Cl", "note": "[Metformin hydrochloride, N,N-dimethylimidocarbonimidic diamide hydrochloride]", "values": [{"measurement": "pH of a 1% aqueous solution", "setting": "[1]", "result": 6.68}]}, {"smiles": "O=C1CCc2ccc(OCCCCN3CCN(c4cccc(Cl)c4Cl)CC3)cc2N1", "note": "[aripiprazole, 7-[4-[4-(2,3-dichlorophenyl)-1-piperazinyl]butoxy]-3,4-dihydrocarbostyril]", "values": [{"measurement": "behavioral outcome on return visit", "setting": "[2]", "result": "much more settled, with fewer outbursts, and no behavioral concerns"}]}, {"smiles": "CN(C)C(=N)N=C(N)N", "note": "[metformin, N,N-dimethylimidocarbonimidic diamide]", "values": [{"measurement": "Body Mass Index (BMI) after treatment", "setting": "[3]; BMI from 24.9", "result": 22.6}, {"measurement": "decrease in body weight", "setting": "[3]", "result": "seven"}]}, {"smiles": "O=C1Cc2cc(CCN3CCN(c4nsc5ccccc45)CC3)c(Cl)cc2N1", "note": "[GEODON]", "values": [{"measurement": "weight gain", "setting": "[4]", "result": "significant weight gain"}]}]}
